Values quoted from earlier work, collected in patent publication US20030203881A1, “Method of treating neurologic disorders” (priority 2000, published 2003).

Key:
[1] = system: osteoarthritis in dog models; conditions: prophylactic administration
[2] = system: patients with mild and moderate arthritis
inflammatory cells = conditions: EAE
microglial response = conditions: experimental model of stroke, around stroke lesions
neurons = conditions: tissue culture

| SMILES | severity of osteoarthritis [1] | efficacy in patients with arthritis [2] | safety in patients with arthritis [2] | invasion of inflammatory cells into the CNS (inflammatory cells) | microglial response in the area surrounding areas of brain ischemia (microglial response) | protection of neurons against death (neurons) |
| --- | --- | --- | --- | --- | --- | --- |
| C[C@H]1c2cccc(O)c2C(=O)C2=C(O)[C@]3(O)C(=O)C(C(N)=O)=C(O)[C@@H](N(C)C)[C@@H]3[C@@H](O)[C@@H]21 [doxycycline] | markedly reduced the severity of osteoarthritis |  |  |  |  |  |
| CN(C)c1ccc(O)c2c1C[C@H]1C[C@H]3[C@H](N(C)C)C(=O)C(C(N)=O)=C(O)[C@@]3(O)C(=O)C1=C2O [minocycline] |  | effective | safe | prevents the invasion of inflammatory cells into the CNS | reduced the microglial response | protects neurons against death |
